Data as given in the supplement of paper PMC11451515.

Columns and labels:
Assay in all cases: AUC of viability dose-response curve (% viability x log10 dose units); higher = less sensitive
Settings in all cases: 48 h
P12-Ichikawa = test system: P12-Ichikawa
Summary of the method: (§1)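 Over 48 h at 37°C, leukemia cells in 1536-well plates (500 or 1000 cells/well), adapted to each medium, received library compounds in DMSO at 11 threefold doses from 47 μM to 0.79 nM. CellTiter-Glo One luminescence, normalised per plate to DMSO and cell-free wells, was fitted by a four-parameter log-logistic function of log10 dose. The area under the curve was then integrated by trapezoidal rule, after scaling curves above full viability and removing those that failed quality control.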

NOMO1 = test system: NOMO1
Summary of the method: as §1

SEM cells = test system: SEM cells
Summary of the method: as §1

[1] = RPMI 5 mM glucose + 10% dialyzed FBS

## Oc1nc(-c2ccc(C(F)(F)F)cc2)nc2c1CSCC2
P12-Ichikawa; HPLM + 10% dialyzed FBS
  AUC of viability dose-response curve: 464
P12-Ichikawa; RPMI 5 mM glucose + 10% FBS
  AUC of viability dose-response curve: 464
P12-Ichikawa; [1]
  AUC of viability dose-response curve: 436
NOMO1; HPLM + 10% dialyzed FBS
  AUC of viability dose-response curve: 477
NOMO1; RPMI 5 mM glucose + 10% FBS
  AUC of viability dose-response curve: 441
NOMO1; [1]
  AUC of viability dose-response curve: 466
SEM cells; HPLM + 10% dialyzed FBS
  AUC of viability dose-response curve: 438
SEM cells; RPMI 5 mM glucose + 10% FBS
  AUC of viability dose-response curve: 457
SEM cells; [1]
  AUC of viability dose-response curve: 449

## COc1c(C)c2c(c(O)c1C/C=C(\C)CCC(=O)O)C(=O)OC2
P12-Ichikawa; HPLM + 10% dialyzed FBS
  AUC of viability dose-response curve: 426
P12-Ichikawa; RPMI 5 mM glucose + 10% FBS
  AUC of viability dose-response curve: 392
P12-Ichikawa; [1]
  AUC of viability dose-response curve: 404
NOMO1; HPLM + 10% dialyzed FBS
  AUC of viability dose-response curve: 421
NOMO1; RPMI 5 mM glucose + 10% FBS
  AUC of viability dose-response curve: 425
NOMO1; [1]
  AUC of viability dose-response curve: 428
SEM cells; HPLM + 10% dialyzed FBS
  AUC of viability dose-response curve: 436
SEM cells; RPMI 5 mM glucose + 10% FBS
  AUC of viability dose-response curve: 414
SEM cells; [1]
  AUC of viability dose-response curve: 445

## CC#CCn1c(N2CCC[C@@H](N)C2)nc2c1c(=O)n(Cc1nc(C)c3ccccc3n1)c(=O)n2C
P12-Ichikawa; HPLM + 10% dialyzed FBS
  AUC of viability dose-response curve: 473
P12-Ichikawa; RPMI 5 mM glucose + 10% FBS
  AUC of viability dose-response curve: 450
P12-Ichikawa; [1]
  AUC of viability dose-response curve: 449
NOMO1; HPLM + 10% dialyzed FBS
  AUC of viability dose-response curve: 471
NOMO1; RPMI 5 mM glucose + 10% FBS
  AUC of viability dose-response curve: 443
NOMO1; [1]
  AUC of viability dose-response curve: 457
SEM cells; HPLM + 10% dialyzed FBS
  AUC of viability dose-response curve: 475
SEM cells; RPMI 5 mM glucose + 10% FBS
  AUC of viability dose-response curve: 460
SEM cells; [1]
  AUC of viability dose-response curve: 433

## O=C(O)C(=O)c1cn(Cc2ccccc2)c2ccc(-c3ccc(OC(F)(F)F)cc3)cc12
P12-Ichikawa; HPLM + 10% dialyzed FBS
  AUC of viability dose-response curve: 456
P12-Ichikawa; RPMI 5 mM glucose + 10% FBS
  AUC of viability dose-response curve: 471
P12-Ichikawa; [1]
  AUC of viability dose-response curve: 466
NOMO1; HPLM + 10% dialyzed FBS
  AUC of viability dose-response curve: 449
NOMO1; RPMI 5 mM glucose + 10% FBS
  AUC of viability dose-response curve: 460
NOMO1; [1]
  AUC of viability dose-response curve: 443
SEM cells; HPLM + 10% dialyzed FBS
  AUC of viability dose-response curve: 451
SEM cells; RPMI 5 mM glucose + 10% FBS
  AUC of viability dose-response curve: 448
SEM cells; [1]
  AUC of viability dose-response curve: 444

## OCC(O)C(O)C(O)CO (stereo not given)
P12-Ichikawa; HPLM + 10% dialyzed FBS
  AUC of viability dose-response curve: 455
P12-Ichikawa; RPMI 5 mM glucose + 10% FBS
  AUC of viability dose-response curve: 432
P12-Ichikawa; [1]
  AUC of viability dose-response curve: 429
NOMO1; HPLM + 10% dialyzed FBS
  AUC of viability dose-response curve: 430
NOMO1; RPMI 5 mM glucose + 10% FBS
  AUC of viability dose-response curve: 414
NOMO1; [1]
  AUC of viability dose-response curve: 447
SEM cells; HPLM + 10% dialyzed FBS
  AUC of viability dose-response curve: 421
SEM cells; RPMI 5 mM glucose + 10% FBS
  AUC of viability dose-response curve: 429
SEM cells; [1]
  AUC of viability dose-response curve: 402

## COc1ccc2c(c1)[C@]13CCCCC1C(C2)N(C)CC3 (stereo not given in full)
P12-Ichikawa; HPLM + 10% dialyzed FBS
  AUC of viability dose-response curve: 467
P12-Ichikawa; RPMI 5 mM glucose + 10% FBS
  AUC of viability dose-response curve: 474
P12-Ichikawa; [1]
  AUC of viability dose-response curve: 457
NOMO1; HPLM + 10% dialyzed FBS
  AUC of viability dose-response curve: 468
NOMO1; RPMI 5 mM glucose + 10% FBS
  AUC of viability dose-response curve: 466
NOMO1; [1]
  AUC of viability dose-response curve: 469
SEM cells; HPLM + 10% dialyzed FBS
  AUC of viability dose-response curve: 435
SEM cells; RPMI 5 mM glucose + 10% FBS
  AUC of viability dose-response curve: 443
SEM cells; [1]
  AUC of viability dose-response curve: 467

## COC(=O)C\1=C(C)\N\C(=C(/C1C2=CC=CC3=NON=C23)C(=O)OC(C)C)C (stereo not given)
P12-Ichikawa; HPLM + 10% dialyzed FBS
  AUC of viability dose-response curve: 455
P12-Ichikawa; RPMI 5 mM glucose + 10% FBS
  AUC of viability dose-response curve: 454
P12-Ichikawa; [1]
  AUC of viability dose-response curve: 438
NOMO1; HPLM + 10% dialyzed FBS
  AUC of viability dose-response curve: 437
NOMO1; RPMI 5 mM glucose + 10% FBS
  AUC of viability dose-response curve: 441
NOMO1; [1]
  AUC of viability dose-response curve: 464
SEM cells; HPLM + 10% dialyzed FBS
  AUC of viability dose-response curve: 468
SEM cells; RPMI 5 mM glucose + 10% FBS
  AUC of viability dose-response curve: 449
SEM cells; [1]
  AUC of viability dose-response curve: 457

## COc1cccc2c1C(=O)c1c(O)c3c(c(O)c1C2=O)C[C@@](O)(C(=O)CO)C[C@@H]3O[C@H]1C[C@H](N)[C@H](O)[C@H](C)O1
P12-Ichikawa; HPLM + 10% dialyzed FBS
  AUC of viability dose-response curve: 338
P12-Ichikawa; RPMI 5 mM glucose + 10% FBS
  AUC of viability dose-response curve: 326
P12-Ichikawa; [1]
  AUC of viability dose-response curve: 346
NOMO1; HPLM + 10% dialyzed FBS
  AUC of viability dose-response curve: 367
NOMO1; RPMI 5 mM glucose + 10% FBS
  AUC of viability dose-response curve: 369
NOMO1; [1]
  AUC of viability dose-response curve: 374
SEM cells; HPLM + 10% dialyzed FBS
  AUC of viability dose-response curve: 286
SEM cells; RPMI 5 mM glucose + 10% FBS
  AUC of viability dose-response curve: 268
SEM cells; [1]
  AUC of viability dose-response curve: 271

## O=C(O)c1cccnc1Nc1cccc(C(F)(F)F)c1
P12-Ichikawa; HPLM + 10% dialyzed FBS
  AUC of viability dose-response curve: 451
P12-Ichikawa; RPMI 5 mM glucose + 10% FBS
  AUC of viability dose-response curve: 451
P12-Ichikawa; [1]
  AUC of viability dose-response curve: 444
NOMO1; HPLM + 10% dialyzed FBS
  AUC of viability dose-response curve: 446
NOMO1; RPMI 5 mM glucose + 10% FBS
  AUC of viability dose-response curve: 452
NOMO1; [1]
  AUC of viability dose-response curve: 461
SEM cells; HPLM + 10% dialyzed FBS
  AUC of viability dose-response curve: 466
SEM cells; RPMI 5 mM glucose + 10% FBS
  AUC of viability dose-response curve: 420
SEM cells; [1]
  AUC of viability dose-response curve: 436

## Cc1cc2c(C(N)=O)cccc2n1-c1nc2c(c(NCc3ccccc3)n1)COCC2
P12-Ichikawa; HPLM + 10% dialyzed FBS
  AUC of viability dose-response curve: 330
P12-Ichikawa; RPMI 5 mM glucose + 10% FBS
  AUC of viability dose-response curve: 322
P12-Ichikawa; [1]
  AUC of viability dose-response curve: 334
NOMO1; HPLM + 10% dialyzed FBS
  AUC of viability dose-response curve: 312
NOMO1; RPMI 5 mM glucose + 10% FBS
  AUC of viability dose-response curve: 315
NOMO1; [1]
  AUC of viability dose-response curve: 293
SEM cells; HPLM + 10% dialyzed FBS
  AUC of viability dose-response curve: 295
SEM cells; RPMI 5 mM glucose + 10% FBS
  AUC of viability dose-response curve: 310
SEM cells; [1]
  AUC of viability dose-response curve: 312
